Laboratory results: ChEMBL document CHEMBL1153880, “Synthesis and adrenolytic activity of 1-(1H-indol-4-yloxy)-3-{[2-(2-methoxyphenoxy)ethyl]amino}propan-2-ol and its enantiomers. Part 1” (Eur J Med Chem, 2009)

Tested on: Rattus norvegicus
Test: Hypotensive activity in anaesthetized normotensive Wistar rat assessed as decrease in systolic pressure at 0.25 to 1 mg/kg, iv administered as single dose after 5 mins
Format: functional
Design: scale not given: the % may be the effect or the level left
Details: dose mg/kg 0.25-1

## COc1ccccc1OCCNCC(O)COc1cccc2[nH]ccc12 (racemic)
  Activity: 10%
